Results published in patent US12162855B2, “Tetrahydroquinolino derivatives for the treatment of metastatic and chemoresistant cancers” (THE TRUSTEES OF PRINCETON UNIVERSITY, priority 2018, dated 2024).

What was measured:
ALDH1a3 [1] = biological target: T1, ALDH1a3 (Homo sapiens, UniProt P47895); test: ALDEFLUOR assay in cell lines of a variety of cancer types; assay type: cell-based; details: ALDEFLUOR-positive cells, various cancer cell lines
T1 construct: endogenous in cells; host or cells: panel of cancer cell lines (e.g. Sum159-M1a, MDA-MB-468 and others of b212)
T1 sequence (P47895 2-512): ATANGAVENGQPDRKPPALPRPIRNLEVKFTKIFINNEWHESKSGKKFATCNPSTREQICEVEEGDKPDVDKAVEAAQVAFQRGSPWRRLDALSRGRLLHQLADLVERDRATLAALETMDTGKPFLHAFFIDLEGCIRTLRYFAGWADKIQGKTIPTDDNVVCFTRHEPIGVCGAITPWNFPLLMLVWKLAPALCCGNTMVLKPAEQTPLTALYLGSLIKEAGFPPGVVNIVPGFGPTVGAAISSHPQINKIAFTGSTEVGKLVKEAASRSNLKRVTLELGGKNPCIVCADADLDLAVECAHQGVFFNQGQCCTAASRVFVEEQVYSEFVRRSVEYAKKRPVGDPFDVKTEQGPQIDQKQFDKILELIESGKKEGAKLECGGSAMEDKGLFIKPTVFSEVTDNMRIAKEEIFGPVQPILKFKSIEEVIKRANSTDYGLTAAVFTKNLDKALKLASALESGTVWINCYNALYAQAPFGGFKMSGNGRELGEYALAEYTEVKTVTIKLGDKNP
From the text: Cell lines were labeled with retroviral vectors with bi-cistronic expression of GFP/firefly luciferase to facilitate imaging and flow cytometry experiments. All cell lines were verified negative for mycoplasma contamination by monthly PCR analysis. No cells lines used here appear in the database of commonly misidentified cell lines (ICLAC). All cell lines were validated with STR analysis and compared to NCBI repository data.
(§1) Cells were counted, centrifuged and resuspended at 1,000,000 cells/mL in ALDEFLUOR™ buffer (Stemcell Technologies). ALDEFLUOR™ substrate (Stemcell Technologies, 1:200) and test compound or 1 mM DEAB were added to cell suspension and incubated at 37° C. for 45 minutes with vortexing every 15 minutes. Cells were centrifuged and resuspended in ALDEFLUOR™ buffer with DAPI at 5 μg/mL. Samples were analyzed with the BD LSR2 flow cytometry platform. Gating was performed using DEAB as a negative control.
A notable exception is liver cancer, where it is expected that a large ALDEFLUOR™-positive population exists, and is driven by ALDH1a1.

Aldh3a1 = biological target: T2, Aldh3a1 (Homo sapiens, UniProt P30838); test: ALDEFLUOR assay in MCF7 cells transduced with human Aldh3a1; assay type: cell-based; details: concentrations below 10 μM
T2 construct: expressed in transfected cells; host or cells: MCF7, lentiviral pLex vector
T2 sequence (P30838 1-453): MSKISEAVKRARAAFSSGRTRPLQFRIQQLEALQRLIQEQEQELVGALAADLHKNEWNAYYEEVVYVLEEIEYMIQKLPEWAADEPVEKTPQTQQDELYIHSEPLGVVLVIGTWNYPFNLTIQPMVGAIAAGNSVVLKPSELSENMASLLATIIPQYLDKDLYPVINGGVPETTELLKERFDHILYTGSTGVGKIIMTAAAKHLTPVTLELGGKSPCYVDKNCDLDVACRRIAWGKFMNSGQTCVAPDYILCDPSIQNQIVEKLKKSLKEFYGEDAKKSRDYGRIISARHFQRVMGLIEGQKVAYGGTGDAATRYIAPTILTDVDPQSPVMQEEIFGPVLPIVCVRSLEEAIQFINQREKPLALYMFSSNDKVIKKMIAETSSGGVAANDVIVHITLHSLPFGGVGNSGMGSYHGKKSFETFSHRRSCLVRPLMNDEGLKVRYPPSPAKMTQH
Procedure: The coding sequences of Aldh1a1, Aldh1a2, Aldh1a3 and Aldh3a1 were cloned from cDNA made from pooled human reference RNA samples. Cloned sequences flanked by Age1 and Xho1 restriction sites were inserted into the pLex lentiviral plasmid. Clones were sequenced and compared against NCBI expressed sequence tags (ESTs) for accuracy. […]. Viruses were collected and filtered at 0.45 μm, then cells were transduced using polybrene (8 μg/mL) for 12 hours, followed by culture with 1 μg/mL puromycin for the duration of experiments. All viral transduction and selection was performed on a cell population-wide basis.
as §1

[2] = test system: Sum-159-M1a-Aldh1a3 cells; test: Lung metastasis xenograft, Sum-159-M1a-Aldh1a3 cells by tail-vein injection; assay type: in vivo, mouse; details: 25 mg/kg daily with paclitaxel 12.5 mg/kg every other day, 12 days
Procedure: In another xenograft experiment, mice were injected with Sum-159-M1a-Aldh1a3 cells via tail-vein injection, and were randomized following injection. Mice were treated with MBE1.5 (25 mg/kg daily) or vehicle, and paclitaxel (12.5 mg/kg every other day) for twelve days. Lung metastasis progression was tracked by intravital bioluminescence.

ALDH1a3 [3] = biological target: T3, ALDH1a3 (Homo sapiens, UniProt P47895); test: ALDEFLUOR assay in 293T cells transiently transfected with human Aldh1a3; assay type: cell-based; details: 293T cells transfected with human Aldh1a3
T3 construct: lentiviral vectors containing either the vector backbone or full-length human Aldh1a3; expressed in transfected cells; host or cells: SUM159-M1a (A1) and SUM159 (A7) breast cancer cells, lentiviral pLex vector, puromycin selection
T3 sequence (P47895 1-512): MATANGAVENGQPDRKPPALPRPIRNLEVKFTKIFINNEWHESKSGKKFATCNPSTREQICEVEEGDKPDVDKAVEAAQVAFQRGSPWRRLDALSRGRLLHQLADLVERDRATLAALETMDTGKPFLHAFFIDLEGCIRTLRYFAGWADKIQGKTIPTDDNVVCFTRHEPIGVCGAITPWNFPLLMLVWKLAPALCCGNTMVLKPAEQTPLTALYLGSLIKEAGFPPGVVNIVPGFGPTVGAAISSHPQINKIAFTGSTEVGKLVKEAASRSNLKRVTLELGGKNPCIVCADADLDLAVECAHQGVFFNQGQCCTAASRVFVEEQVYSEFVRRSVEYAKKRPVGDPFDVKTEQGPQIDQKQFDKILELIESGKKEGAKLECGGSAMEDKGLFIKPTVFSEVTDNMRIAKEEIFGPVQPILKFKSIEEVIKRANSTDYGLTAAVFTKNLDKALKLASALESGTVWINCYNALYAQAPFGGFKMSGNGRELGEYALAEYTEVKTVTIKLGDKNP
Procedure: The coding sequences of Aldh1a1, Aldh1a2, Aldh1a3 and Aldh3a1 were cloned from cDNA made from pooled human reference RNA samples. Cloned sequences flanked by Age1 and Xho1 restriction sites were inserted into the pLex lentiviral plasmid. Clones were sequenced and compared against NCBI expressed sequence tags (ESTs) for accuracy. Viral production of each enzyme was performed by transfection into the 293T packaging cell line using PEI along with PsPax2 and VSVG packaging vectors. Viruses were collected and filtered at 0.45 μm, then cells were transduced using polybrene (8 μg/mL) for 12 hours, followed by culture with 1 μg/mL puromycin for the duration of experiments. All viral transduction and selection was performed on a cell population-wide basis.
as §1

| SMILES | inhibition of ALDH1a3 activity in a variety of cancer types (FIG. 3A) (ALDH1a3 [1]) | inhibition of Aldh3a1 activity (FIG. 2A) (Aldh3a1) | mouse survival, Kaplan-Meier (FIG. 16B) [2] | inhibition of Aldh1a3 activity (FIG. 2B) (ALDH1a3 [3]) |
| --- | --- | --- | --- | --- |
| CCc1cnccc1C(=O)Nc1cc2c(cc1F)NC(=O)CC2 [MBE1, 3-ethyl-N-(7-fluoro-2-oxo-1,2,3,4-tetrahydroquinolin-6-yl)isonicotinamide] | inhibited by MBE1 in many cancer types | does not inhibit | – | – |
| CCc1ccccc1C(=O)Nc1cc2c(cc1F)NC(=O)CC2 [MBE1.5, 2-ethyl-N-(7-fluoro-2-oxo-1,2,3,4-tetrahydroquinolin-6-yl)benzamide] | – | – | extended survival in mice with late-stage established breast cancer lung metastasis | effective at inhibiting Aldh1a3 activity |
